Measurements: paper PMC6747274, “Multifunctional Peptides from Spanish Dry-Cured Pork Ham: Endothelial Responses and Molecular Modeling Studies” (International Journal of Molecular Sciences, 2019)
Where no end group is shown, it is not given here.

What was measured:
[1] = test system: ICAM-1 protein, EA.hy926 cells; test: Intracellular ICAM-1 protein by western blot; format: cell-based, human; conditions: 300 µM peptide + 100 ng/mL TNF-α vs TNF-α stimulation; p < 0.01
Experimental: EA.hy926 were seeded in six-well plates at 0.25 × 10^6 cells/well in DMEM supplemented with 5% FBS. Cells were treated with 300 µM of each peptide for 16 h. Then, 100 ng/mL TNF-α or 300 µM H2O2 were added for an additional 6 h or 24 h, respectively.
Supplementary Material and Methods
1.1. Human ACE Inhibitio n Assa y
Before transfection, the endothelial ACE expressio n level was very low and the p roduct of the enzymatic reaction undete ctable, and so a recombinant construct e ncodi ng the Myc-Tag fused to the ACE ge ne was used. T o overexpress the ACE enzyme, EA.hy926 cel ls were seeded in 24-well plates at 80,000 cells/well and transiently transfec ted with a human Ace ORF mammali an expression plasmid (Sinobiological, Beijing, China) using trans-it X2 reagent ( Myrus®, Madi son, […]
Wisconsin, USA). […] The effi ciency of […]
transfecti on was checked by immunofluorescence. Briefly, 48 h post-transfection, cells were fixed with 4% paraformaldehyd e in culture medi um for 15 min at room temperatur e, blocked with 1% bo vine seru m albumin (BSA) in phosph ate buffer for 30 min followed by 0.2% sapo nin for 30 min to permeabil ize the membr ane. […]
The mRNA level s of the target genes (ICAM-1, VCAM-1, IL-6, eNOS, SOD, catal ase, NADPH, BAX) were quantified by RT-PCR using Se nsiFAST SYBER Hi-ROX Kit (Bioline, Taunton, USA) with StepOnePlus Real-Time PCR Sy stem (Appl ied Bi osystems, Foster City, CA, USA) using speci fi c and vali dated pri mers (Si gma-Al drich Chemical Co., Saint Louis, MO, USA).
The tetr azolium assay (MTT) was used to estimate the cel l viability in the presence of synthetic pepti des (up to 600 µM) and 300 µM H2O2. […] The formazan crystals formed in the intact cel ls were dissol ved in 200 µL dimethyl sulfoxide (DMSO) for 30 min and the absorbance was measured in a micro plate reader at 570 nm and 620 nm of reference. Results wer e calculated as cel l viability (%) = average optic density (OD) of wells/ave rage OD of control wells. […]

purified rabbit ACE = purified rabbit ACE in vitro; read-out: IC50, purified rabbit ACE (given as ACE inhibitory concentration); cited from earlier work
Excerpt: Numerous reports have identified stable peptides with high ACE-inhibitory activity from pork dry-cured ham after gastrointestinal digestion. Four of them were synthetized chemically (KPVAAP, KAAAATP, KPGRP, and AAATP) for the current experimental studies with human endothelial cells.

human ACE = human ACE (Homo sapiens, UniProt P12821); test: Human ACE inhibition assay (lysate of ACE-transfected EA.hy926 cells, HHL substrate, HPLC)
Chain of human ACE (P12821 30-1306): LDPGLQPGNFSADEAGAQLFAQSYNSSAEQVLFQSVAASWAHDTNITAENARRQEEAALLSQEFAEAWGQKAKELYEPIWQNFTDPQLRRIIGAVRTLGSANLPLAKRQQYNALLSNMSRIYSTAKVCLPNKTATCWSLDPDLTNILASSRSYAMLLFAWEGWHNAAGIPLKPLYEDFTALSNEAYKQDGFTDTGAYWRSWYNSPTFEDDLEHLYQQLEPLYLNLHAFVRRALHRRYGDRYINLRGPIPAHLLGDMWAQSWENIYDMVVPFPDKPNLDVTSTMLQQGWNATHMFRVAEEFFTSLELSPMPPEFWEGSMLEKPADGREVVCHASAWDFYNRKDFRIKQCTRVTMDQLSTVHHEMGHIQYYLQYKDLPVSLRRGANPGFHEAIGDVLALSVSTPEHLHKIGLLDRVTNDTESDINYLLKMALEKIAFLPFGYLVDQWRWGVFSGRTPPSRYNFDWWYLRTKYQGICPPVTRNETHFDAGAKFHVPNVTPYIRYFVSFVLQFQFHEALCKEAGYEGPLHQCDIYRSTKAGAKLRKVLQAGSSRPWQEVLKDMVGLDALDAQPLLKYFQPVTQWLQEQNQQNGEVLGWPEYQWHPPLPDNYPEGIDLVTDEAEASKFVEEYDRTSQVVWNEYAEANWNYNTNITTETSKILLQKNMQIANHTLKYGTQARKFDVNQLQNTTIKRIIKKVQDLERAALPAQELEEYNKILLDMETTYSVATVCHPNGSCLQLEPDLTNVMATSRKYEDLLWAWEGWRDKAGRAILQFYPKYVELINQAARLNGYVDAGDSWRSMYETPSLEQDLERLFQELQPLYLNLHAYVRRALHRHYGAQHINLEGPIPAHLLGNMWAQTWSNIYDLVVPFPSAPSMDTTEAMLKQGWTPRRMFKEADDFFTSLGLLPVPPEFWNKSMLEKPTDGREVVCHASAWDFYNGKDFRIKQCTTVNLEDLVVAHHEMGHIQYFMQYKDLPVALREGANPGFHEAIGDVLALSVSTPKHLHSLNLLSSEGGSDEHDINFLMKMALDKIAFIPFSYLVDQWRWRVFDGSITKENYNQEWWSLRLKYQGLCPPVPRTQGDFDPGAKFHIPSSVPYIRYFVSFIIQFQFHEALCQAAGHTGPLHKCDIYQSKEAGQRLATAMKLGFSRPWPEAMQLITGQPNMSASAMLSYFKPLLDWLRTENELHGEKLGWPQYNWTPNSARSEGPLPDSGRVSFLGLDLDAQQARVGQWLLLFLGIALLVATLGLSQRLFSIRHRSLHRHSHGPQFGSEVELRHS

For AAATP [BP4], the “ICAM-1 protein production (western blot)” value [1] is given as “lower production of ICAM-1 protein”, the IC50 (purified rabbit ACE) is given as 100 µM and the IC50 (human ACE) is given as over 1000 µM.
For KAAAATP [BP2], the “ICAM-1 protein production (western blot)” value [1] is given as “lower production of ICAM-1 protein”, the IC50 (purified rabbit ACE) is given as 25.6 µM and the IC50 (human ACE) is given as over 1000 µM.
